Results from US20190389882A1, “INHIBITORS OF BETA SECRETASE” (Janssen Pharmaceutica NV, priority 2017, published 2019).

Columns and labels:
[1] = target: T1, recombinant BACE2 protein (Homo sapiens, UniProt Q9Y5Z0); assay: BACE2 biochemical FRET based assay; conditions: 450 min at room temperature; for IC50: pH 5.0, read-out: Biochemical FRET based assay pIC50 (converted)
T1 construct: recombinant BACE2 protein in a final concentration of 0.4 μg/ml
T1 sequence (Q9Y5Z0 63-518): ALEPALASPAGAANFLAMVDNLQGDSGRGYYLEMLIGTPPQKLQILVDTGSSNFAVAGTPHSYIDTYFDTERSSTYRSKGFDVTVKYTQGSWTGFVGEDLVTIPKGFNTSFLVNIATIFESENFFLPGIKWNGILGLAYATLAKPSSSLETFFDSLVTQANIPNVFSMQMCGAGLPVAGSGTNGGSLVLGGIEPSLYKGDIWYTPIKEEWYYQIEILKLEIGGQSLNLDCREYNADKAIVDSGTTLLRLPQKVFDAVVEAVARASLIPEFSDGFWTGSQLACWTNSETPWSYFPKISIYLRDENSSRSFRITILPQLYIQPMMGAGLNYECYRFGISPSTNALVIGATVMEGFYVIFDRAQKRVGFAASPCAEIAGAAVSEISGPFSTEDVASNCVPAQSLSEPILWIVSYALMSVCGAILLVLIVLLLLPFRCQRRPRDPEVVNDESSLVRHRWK
From the text: (§1) This assay is a Fluorescence Resonance Energy Transfer Assay (FRET) based assay. The substrate for this assay contains the ‘Swedish’ Lys-Met/Asn-Leu mutation of the amyloid precursor protein (APP) beta-secretase cleavage site. This substrate also contains two fluorophores: (7-methoxycoumarin-4-yl) acetic acid (Mca) is a fluorescent donor with excitation wavelength at 320 nm and emission at 405 nm and 2,4-Dinitrophenyl (Dnp) is a proprietary quencher acceptor. […] Upon cleavage by the beta-secretase, the fluorophore Mca is separated from the quenching group Dnp, restoring the full fluorescence yield of the donor. The increase in fluorescence is linearly related to the rate of proteolysis.
Briefly in a 384-well format recombinant BACE2 protein in a final concentration of 0.4 μg/ml is incubated for 450 minutes at room temperature with […] substrate in incubation buffer (50 mM Citrate buffer pH 5.0, 0.05% PEG, no DMSO) in the absence or presence of compound. Next the amount of proteolysis is directly measured by fluorescence measurement at T=0 and T=450 (excitation at 320 nm and emission at 405 nm). Results are expressed in RFU (Relative Fluorescence Units), as difference between T450 and TO.
(§2) A best-fit curve is fitted by a minimum sum of squares method to the plot of % Controlmin versus compound concentration. From this an IC50 value (inhibitory concentration causing 50% inhibition of activity) can be obtained.

[2] = test system: Abeta 1-42 produced and secreted by human neuroblastoma SKNBE2 cells expressing hAPP695; assay: Cellular αLisa assay in SKNBE2 cells, Abeta 1-42; format: cell-based; conditions: 18 hours incubation; for IC50: Homo sapiens, SKNBE2, 18 h, read-out: Cellular αLisa assay in SKNBE2 cells Abeta 42 pIC50 (converted)
Procedure: (§3) Cellular αLisa Assay in Sknbe2 Cells In two αLisa assays the levels of Abeta total and Abeta 1-42 produced and secreted into the medium of human neuroblastoma SKNBE2 cells are quantified. The assay is based on the human neuroblastoma SKNBE2 expressing the wild type Amyloid Precursor Protein (hAPP695). The compounds are diluted and added to these cells, incubated for 18 hours and then measurements of Abeta 1-42 and Abeta total are taken. Abeta total and Abeta 1-42 are measured by sandwich αLisa. αLisa is a sandwich assay using biotinylated antibody AbN/25 attached to streptavidin coated beads and antibody Ab4G8 or cAb42/26 conjugated acceptor beads for the detection of Abeta total and Abeta 1-42 respectively. In the presence of Abeta total or Abeta 1-42, the beads come into close proximity. The excitation of the donor beads provokes the release of singlet oxygen molecules that trigger a cascade of energy transfer in the acceptor beads, resulting in light emission. Light emission is measured after 1 hour incubation (excitation at […] and emission at 615 nm).
as §2

[3] = target: T2, recombinant BACE1 protein (Homo sapiens, UniProt P56817); assay: BACE1 biochemical FRET based assay; conditions: 450 min at room temperature; for IC50: pH 5.0, read-out: Biochemical FRET based assay pIC50 (converted)
T2 construct: recombinant BACE1 protein in a final concentration of 0.04 μg/ml
From the text: as §1, with “this assay is an APP derived 13 amino acids peptide that contains the” for “this assay contains the”, “cleavage by BACE1, the fluorophore” for “cleavage by the beta-secretase, the fluorophore”
Briefly in a 384-well format recombinant BACE1 protein in a final concentration of 0.04 μg/ml is incubated for 450 minutes at room temperature with 20 μM substrate in incubation buffer (50 mM Citrate buffer pH 5.0, 0.05% PEG) in the presence of compound or DMSO. Next the amount of proteolysis is directly measured by fluorescence measurement (excitation at 320 nm and emission at 405 nm) at different incubation times (0, 30, 60, 90, 120 and 450 min). For every experiment a time curve (every 30 min between 0 min and 120 min) is used to determine the time where we find the lowest basal signal of the high control. The signal at this time (Tx) is used to subtract from the signal at 450 min. Results are expressed in RFU, as difference between T450 and Tx.
as §2

β-secretase I (BACE1) = β-secretase I (BACE1) (Homo sapiens, UniProt P56817); assay: Automated (CyclOps) biochemical assay BACE1
[4] = test system: Abeta total produced and secreted by human neuroblastoma SKNBE2 cells expressing hAPP695; assay: Cellular αLisa assay in SKNBE2 cells, Abeta total; format: cell-based; conditions: 18 hours incubation, read-out: Cellular αLisa assay in SKNBE2 cells Abeta total pIC50 (converted)
Procedure: as §3, §2

β-secretase II (BACE2) = target: T3, β-secretase II (BACE2) (Homo sapiens, UniProt Q9Y5Z0); assay: Automated (CyclOps) biochemical assay BACE2
T3 sequence (Q9Y5Z0 63-518): T1 sequence (Q9Y5Z0 63-518)

T2 sequence (P56817 46-501): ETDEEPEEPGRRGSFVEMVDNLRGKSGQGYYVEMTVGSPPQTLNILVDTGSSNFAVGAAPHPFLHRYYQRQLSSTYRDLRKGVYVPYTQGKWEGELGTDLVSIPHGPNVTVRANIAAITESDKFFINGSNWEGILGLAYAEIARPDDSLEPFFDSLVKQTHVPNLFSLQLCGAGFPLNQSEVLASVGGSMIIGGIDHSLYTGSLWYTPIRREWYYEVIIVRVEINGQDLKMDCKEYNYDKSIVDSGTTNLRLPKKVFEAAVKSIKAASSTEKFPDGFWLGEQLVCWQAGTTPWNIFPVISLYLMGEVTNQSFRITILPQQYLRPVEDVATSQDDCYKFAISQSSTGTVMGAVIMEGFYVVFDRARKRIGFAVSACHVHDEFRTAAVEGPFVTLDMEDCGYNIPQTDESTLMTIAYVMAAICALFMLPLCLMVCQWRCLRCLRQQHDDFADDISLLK
Sequence of β-secretase I (BACE1) (P56817 46-501): as above

Structure (SMILES) | Biochemical FRET based assay pIC50 ([1]; pH 5.0) | IC50 [2] [nM] | Biochemical FRET based assay pIC50 ([3]; pH 5.0) | IC50 (β-secretase I (BACE1)) [nM] | IC50 [4] [nM] | IC50 [1] [nM] | IC50 [3] [nM] | IC50 (β-secretase II (BACE2)) [nM] | Cellular αLisa assay in SKNBE2 cells Abeta 42 pIC50 [2]
COc1ncc(C(=O)NC2CC2)c2c1C[C@]1(c3ccc(F)cc3F)N=C(N)SC[C@@H]1C2 [Compound 1] | 6.77 | 9.55 | 7.12 |  |  |  |  |  | 
COc1ncc(C(=O)NC2CC2)c2c1C[C@]1(c3ccc(F)cc3F)N=C(N)SC[C@@H]1C2 [Compound 1a] |  | 19.1 |  | 39.8 | 22.9 | 166 | 66.1 | 72.4 | 
COc1ncc(C(=O)N2CCOCC2)c2c1C[C@]1(c3ccc(F)cc3F)N=C(N)SC[C@@H]1C2 [Compound 2] |  | 47.9 |  |  |  | 1510 | 219 |  | 
COc1ncc(C(=O)N2CCOCC2)c2c1CC1(c3ccc(F)cc3F)N=C(N)SCC1C2 (stereo not shown) [Compound 2a] |  | 46.8 |  | 57.5 | 50.1 | 1450 | 240 | 324 | 
COc1ncc(C(=O)Nc2cccnc2)c2c1C[C@]1(c3ccc(F)cc3F)N=C(N)SC[C@@H]1C2 [Compound 3] |  | 56.2 |  |  |  | 282 | 75.9 |  | 
COc1ncc(C(=O)N2CCC(C#N)CC2)c2c1C[C@]1(c3ccc(F)cc3F)N=C(N)SC[C@@H]1C2 [Compound 22] |  | 85.1 |  | 34.7 |  | 1100 | 129 | 355 | 
COc1ncc(C(=O)N2CCC(c3ccncc3)C2)c2c1C[C@]1(c3ccc(F)cc3F)N=C(N)SC[C@@H]1C2 (stereo partly shown) [Compound 28] |  | 28.8 |  |  |  | 977 | 20.4 |  | 
COc1ncc(CNC(=O)c2ccncc2)c2c1C[C@]1(c3ccc(F)cc3F)N=C(N)SC[C@@H]1C2 [Compound 30] |  |  |  |  |  | 355 | 29.5 |  | 7.31
COc1ncc(CNC(=O)c2ccncc2)c2c1C[C@]1(c3ccc(F)cc3F)N=C(N)SC[C@@H]1C2 [Compound 30a] |  |  |  | 41.7 | 81.3 | 692 | 66.1 | 468 | 7
COc1ncc(CNC(=O)C2CC2)c2c1C[C@]1(c3ccc(F)cc3F)N=C(N)SC[C@@H]1C2 [Compound 31] |  | 33.1 |  |  |  | 105 | 81.3 |  | 
COc1ncc(CNC(=O)C2CC2)c2c1C[C@]1(c3ccc(F)cc3F)N=C(N)SC[C@@H]1C2 [Compound 31a] |  |  |  | 70.8 | 43.7 | 126 | 112 | 87.1 | 7.39
COc1ncc(CNC(=O)c2cc(C)no2)c2c1C[C@]1(c3ccc(F)cc3F)N=C(N)SC[C@@H]1C2 [Compound 32] |  |  |  |  |  | 309 | 110 |  | 7.41
COc1ncc(CNC(=O)c2cc(C)no2)c2c1C[C@]1(c3ccc(F)cc3F)N=C(N)SC[C@@H]1C2 [Compound 32a] |  |  |  | 63.1 | 95.5 | 589 | 182 | 174 | 7.07
COc1ncc(CNC(=O)c2nccnc2Cl)c2c1C[C@]1(c3ccc(F)cc3F)N=C(N)SC[C@@H]1C2 [Compound 48] |  | 16.6 |  | 12.2 |  | 200 | 21.9 | 72.4 | 
